Reference: article PMC10698726 (Molecular Pharmaceutics, 2023)
Read-outs that look alike come from different tables or passages of the source.

Assays:
OCT2 = molecular target: T1, OCT2 (Homo sapiens, UniProt O15244); assay: Inhibition of model substrate uptake in OCT2-overexpressing HEK293 cells; settings: for (S,S)-Ethambutol inhibition [%] / ASP+ inhibition [%] / N-Ethyllidocaine inhibition [%] / inhibition at 5 min, 20 μM: OCT2, 20 μM inhibitor; for inhibition at 5 min, 20 μM: human
T1 sequence (O15244 1-555): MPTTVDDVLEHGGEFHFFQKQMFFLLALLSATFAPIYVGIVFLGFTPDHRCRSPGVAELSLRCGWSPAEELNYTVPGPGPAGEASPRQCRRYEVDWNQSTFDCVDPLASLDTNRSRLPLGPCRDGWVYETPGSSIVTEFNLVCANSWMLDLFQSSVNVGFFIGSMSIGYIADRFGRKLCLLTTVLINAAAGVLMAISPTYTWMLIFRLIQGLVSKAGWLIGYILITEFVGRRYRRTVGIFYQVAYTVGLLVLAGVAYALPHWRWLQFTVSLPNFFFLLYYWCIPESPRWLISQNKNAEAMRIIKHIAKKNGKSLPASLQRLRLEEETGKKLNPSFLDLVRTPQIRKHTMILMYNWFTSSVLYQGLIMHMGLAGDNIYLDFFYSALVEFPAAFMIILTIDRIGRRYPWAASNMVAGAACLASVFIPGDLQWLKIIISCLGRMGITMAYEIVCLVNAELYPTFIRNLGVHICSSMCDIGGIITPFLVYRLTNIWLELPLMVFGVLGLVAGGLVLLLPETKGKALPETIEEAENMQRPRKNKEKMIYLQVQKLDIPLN

OCT1 = molecular target: T2, OCT1 (Homo sapiens, UniProt O15245); assay: Inhibition of model substrate uptake in OCT1-overexpressing HEK293 cells; type: cell-based; parameters: expressed in transfected cells; host or cells: HEK293; settings: for IC50: read-out: IC50
T2 sequence (O15245 1-554): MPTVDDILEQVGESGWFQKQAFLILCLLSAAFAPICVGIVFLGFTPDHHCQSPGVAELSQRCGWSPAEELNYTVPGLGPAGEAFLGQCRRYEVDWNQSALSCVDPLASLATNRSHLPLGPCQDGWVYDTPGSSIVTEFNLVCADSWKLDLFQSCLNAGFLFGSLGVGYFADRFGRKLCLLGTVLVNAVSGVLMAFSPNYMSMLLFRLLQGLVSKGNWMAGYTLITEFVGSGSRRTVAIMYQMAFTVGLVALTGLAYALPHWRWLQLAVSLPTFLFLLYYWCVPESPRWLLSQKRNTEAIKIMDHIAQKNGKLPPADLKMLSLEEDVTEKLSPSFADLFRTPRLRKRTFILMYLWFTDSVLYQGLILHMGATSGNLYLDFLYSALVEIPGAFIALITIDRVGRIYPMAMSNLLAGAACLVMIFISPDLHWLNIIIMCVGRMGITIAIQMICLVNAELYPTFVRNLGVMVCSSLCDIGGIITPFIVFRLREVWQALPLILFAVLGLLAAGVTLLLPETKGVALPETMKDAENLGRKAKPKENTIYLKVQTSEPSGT
Method: Koepsell and Gorbulev (University of Würzburg, Germany).
Fluorescence quantification was performed in technical duplicates.

OCT3 = molecular target: T3, OCT3 (Homo sapiens, UniProt O75751); assay: Inhibition of model substrate uptake in OCT3-overexpressing HEK293 cells; type: cell-based
T3 construct: expressed in transfected cells; host or cells: HEK293
T3 sequence (O75751 1-556): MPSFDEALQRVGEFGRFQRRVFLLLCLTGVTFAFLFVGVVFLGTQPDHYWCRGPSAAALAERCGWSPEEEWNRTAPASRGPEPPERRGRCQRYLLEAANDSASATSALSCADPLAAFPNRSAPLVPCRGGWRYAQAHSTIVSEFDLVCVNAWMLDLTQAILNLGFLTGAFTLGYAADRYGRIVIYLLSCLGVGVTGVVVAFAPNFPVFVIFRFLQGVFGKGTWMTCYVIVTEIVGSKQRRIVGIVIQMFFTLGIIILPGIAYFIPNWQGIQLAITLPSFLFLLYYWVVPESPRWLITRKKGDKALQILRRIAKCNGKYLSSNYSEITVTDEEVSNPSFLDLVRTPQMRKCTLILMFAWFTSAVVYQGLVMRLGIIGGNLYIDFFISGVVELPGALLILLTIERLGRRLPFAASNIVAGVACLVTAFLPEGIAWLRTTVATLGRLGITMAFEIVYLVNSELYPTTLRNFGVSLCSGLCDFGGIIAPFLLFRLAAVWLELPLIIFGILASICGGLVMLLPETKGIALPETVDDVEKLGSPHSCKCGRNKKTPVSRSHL
Procedure, shortened: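 Transporter-overexpressing HEK293 cells were incubated 5 min in HBSS+ with 2 μM model substrate, with or without 20 μM inhibitor or increasing inhibitor concentrations. Uptake was read as ASP^+ fluorescence or by LC–MS/MS, with empty-vector uptake subtracted. IC50 came from a Hill fit of activity versus log concentration.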

[1] = OCT1, 20 μM inhibitor, 2 μM ASP+, 5 min, mean of three experiments
[2] = OCT3, 20 μM inhibitor, 2 μM ASP+, 5 min
[3] = OCT2-overexpressing HEK293 cells, pH 7.4, probe (S,S)-ethambutol (2 μM), (S,S)-Ethambutol inhibition [%], 2 μM (S,S)-ethambutol, 5 min
[4] = OCT2-overexpressing HEK293 cells, pH 7.4, probe ASP+ (2 μM), ASP+ inhibition [%], 2 μM ASP+, 5 min
[5] = human, OCT1-overexpressing HEK293 cells, pH 7.4, probe (S,S)-ethambutol (2 μM), (S,S)-Ethambutol inhibition [%], OCT1, 20 μM inhibitor, 2 μM (S,S)-ethambutol, 5 min
[6] = human, OCT1-overexpressing HEK293 cells, pH 7.4, probe ASP+ (2 μM), OCT1, 20 μM inhibitor, 2 μM ASP+, 5 min, mean of three experiments, read-out: ASP+ inhibition [%]
[7] = human, OCT1-overexpressing HEK293 cells, pH 7.4, probe sumatriptan (2 μM), OCT1, 20 μM inhibitor, 2 μM sumatriptan, 5 min, read-out: Sumatriptan inhibition [%]
[8] = HEK293, 5 min, read-out: (S)-Zolmitriptan inhibition [%], OCT3, 20 μM inhibitor, 2 μM (S)-zolmitriptan, 5 min
[9] = HEK293, 5 min, read-out: (S,S)-Ethambutol inhibition [%], OCT3, 20 μM inhibitor, 2 μM (S,S)-ethambutol, 5 min
[10] = HEK293, OCT3, 20 μM inhibitor, 2 μM ASP+, 5 min, read-out: ASP+ inhibition [%]

| SMILES | (S,S)-Ethambutol inhibition [%] (OCT2; 2 μM (S,S)-ethambutol, 5 min) | ASP+ inhibition [%] (OCT2; 2 μM ASP+, 5 min) | N-Ethyllidocaine inhibition [%] (OCT2; 2 μM N-ethyllidocaine, 5 min) | ASP+ inhibition [%] (OCT1; [1]) | ASP+ inhibition [%] (OCT3; [2]) | inhibition at 5 min, 20 μM (OCT2; [3]) | inhibition at 5 min, 20 μM (OCT2; [4]) | inhibition at 5 min, 20 μM (OCT1; [5]) | inhibition at 5 min, 20 μM (OCT1; [6]) | inhibition at 5 min, 20 μM (OCT1; [7]) | inhibition at 20 µM (OCT3; [8]) | inhibition at 20 µM (OCT3; [9]) | inhibition at 20 µM (OCT3; [10]) | Sumatriptan inhibition [%] (OCT1; human, pH 7.4) | also measured |
| --- | --- | --- | --- | --- | --- | --- | --- | --- | --- | --- | --- | --- | --- | --- | --- |
| OC[C@@H](O)CN1CCN(c2ccccc2)CC1 [(S)-Dropropizine] | 20.5% | 51.1% | 7.5% | 24.6% | 29.1% | – | – | – | – | – | – | – | – | – | IC50 (OCT2; IC50, OCT2, Table S5, 2 μM ASP+ as model substrate, 5 min): 55.6 µM; (S,S)-Ethambutol inhibition [%] (OCT1; OCT1, 20 μM inhibitor, 2 μM (S,S)-ethambutol, 5 min): 27.4%; Sumatriptan inhibition [%] (OCT1; OCT1, 20 μM inhibitor, 2 μM sumatriptan, 5 min): 30.4%; (S)-Zolmitriptan inhibition [%] (OCT3; OCT3, 20 μM inhibitor, 2 μM (S)-zolmitriptan, 5 min): -17.1%; (S,S)-Ethambutol inhibition [%] (OCT3; OCT3, 20 μM inhibitor, 2 μM (S,S)-ethambutol, 5 min): 6.7% |
| CN(C)CCO[C@](C)(c1ccccc1)c1ccccn1 [(R)-Doxylamine] | – | – | -13.8% | – | – | 26.2% | 73.2% | 96% | 63.6% | 90.8% | 17.7% | 23.4% | 12.2% | – | IC50 (OCT1; OCT1, Table S5, 2 μM ASP+ or ethambutol as model substrate, 5 min): 22.3 µM |
| CCCCN1CCCC[C@@H]1C(=O)Nc1c(C)cccc1C [(R)-Bupivacaine] | – | – | – | – | – | 56.3% | 59.5% | 63.8% | 32.8% | 59.2% | 51.8% | 50.3% | 31.4% | – | IC50 (OCT2; IC50 [μM], OCT2, Table 1): 21.4 µM; inhibition at 5 min, 20 μM (OCT2; OCT2-overexpressing HEK293 cells, pH 7.4, probe N-ethyllidocaine (2 μM), N-Ethyllidocaine inhibition [%], 2 μM N-ethyllidocaine, 5 min): 64.4%; IC50 (OCT1; OCT1, Table 1): 10.2 µM |
| CC(C)C[C@H](N(C)C)C1(c2ccc(Cl)cc2)CCC1 [(S)-Sibutramine] | – | 83.9% | 44.0% | 38.0% | -0.8% | – | – | – | – | – | – | – | – | 72.0% | (S)-Zolmitriptan inhibition [%] (OCT3): 24.1; (S,S)-Ethambutol inhibition [%] (OCT3): 23.8 |
| O=C(OC1C[N+]2(CCCOc3ccccc3)CCC1CC2)C(O)(c1cccs1)c1cccs1 [(R)-Aclidinium] | -0.8% | – | – | – | – | – | – | – | – | – | 43.3% | 62.8% | – | – | inhibition at 5 min, 20 μM (OCT2; pH 7.4, ASP+ inhibition [%], 2 μM ASP+, 5 min): 108%; inhibition at 5 min, 20 μM (OCT2; pH 7.4, N-Ethyllidocaine inhibition [%], 2 μM N-ethyllidocaine, 5 min): 69.1%; inhibition at 5 min, 20 μM (OCT1; human, pH 7.4, (S,S)-Ethambutol inhibition [%], OCT1, 20 μM inhibitor, 2 μM (S,S)-ethambutol, 5 min): 98.8%; inhibition at 5 min, 20 μM (OCT1; human, pH 7.4, OCT1, 20 μM inhibitor, 2 μM ASP+, 5 min, mean of three experiments, read-out: ASP+ inhibition [%]): 71.6%; inhibition at 5 min, 20 μM (OCT1; human, pH 7.4, OCT1, 20 μM inhibitor, 2 μM sumatriptan, 5 min, read-out: Sumatriptan inhibition [%]): 93.6%; inhibition at 20 µM (OCT3; HEK293, read-out: ASP+ inhibition [%], OCT3, 20 μM inhibitor, 2 μM ASP+, 5 min): 37.1% |
| COc1ccc([C@@H](CN(C)C)C2(O)CCCCC2)cc1 [(S)-Venlafaxine] | – | 21.8% | 13.4% | – | – | – | – | – | – | – | – | – | -11.4% | 66.9% | inhibition at 20 µM (OCT3; HEK293, 5 min, read-out: (S)-Zolmitriptan inhibition [%]): 21%; inhibition at 20 µM (OCT3; HEK293, 5 min, read-out: (S,S)-Ethambutol inhibition [%]): 4.6% |
